Target: human NaV 1.8 (Homo sapiens, UniProt Q9Y5Y9)
Assay: E-VIPR assay detecting and measuring NaV inhibition properties
Assay type: cell-based
Conditions: HEK cells expressing a truncated form of human NaV 1.8; electrical stimulation, membrane potential FRET dyes
Source text: E-VIPR Assay Detecting and Measuring NaV Inhibition Properties
Sodium ion channels are voltage-dependent proteins that can be activated by inducing membrane voltage changes by applying electric fields. The electrical stimulation instrument and methods of use, referred to as E-VIPR, are described in International Publication No. WO 2002/008748 A3 and C.-J. Huang et al. Characterization of voltage-gated sodium channel blockers by electrical stimulation and fluorescence detection of membrane potential, 24 Nature Biotech. 439-46 (2006), both of which are incorporated by reference in their entirety. The instrument comprises a microtiter plate handler, an optical system for exciting the coumarin dye while simultaneously recording the coumarin and oxonol emissions, a waveform generator, a current- or voltage-controlled amplifier, and parallel electrode pairs that are inserted into assay plate wells. Under integrated computer control, this instrument passes user-programmed electrical stimulus protocols to cells within the wells of the microtiter plate.
16-20 hours prior to running the assay on E-VIPR, HEK cells expressing a truncated form of human NaV 1.8 with full channel activity were seeded into microtiter 384-well plates, pre-coated with matrigel, at a density of 25,000 cells per well. 2.5-5% KIR2.1 Bacmam virus was added to the final cell suspension before seeding into cell plates. HEK cells were grown in Dulbecco's Modified Eagle's Medium (DMEM) supplemented with 10% FBS (Fetal Bovine Serum, qualified; Sigma #F4135), 1% NEAA (Non-Essential Amino Acids, Gibco #11140), 1% HEPES (Gibco #15630), 1% Pen-Strep (Penicillin-Streptomycin; Gibco #15140) and 5 μg/ml Blasticidin (Gibco #R210-01). Cells were expanded in vented cap cell culture flasks, with 90-95% humidity and 5% CO2.
Reagents and Stock Solutions:
100 mg/mL Pluronic F-127 (Sigma #P2443), in dry DMSO
Compound Plates: Corning 384-well Polypropylene Round Bottom #3656
Cell Plates: 384-well tissue culture treated plates (Greiner #781091-2B)
2.5-5% KIR 2.1 Bacmam virus (produced in-house), prepared as described in Section 3.3 of J. A. Fornwald et al., Gene Expression in Mammalian Cells Using BacMam, a Modified Baculovirus System, 1350 Methods in Molecular Biology 95-116 (2016), the entire contents of which are incorporated by reference. The concentration used can be dependent on viral titer of each batch.
5 mM DiSBAC6(3), a voltage sensitive oxonol acceptor (CAS number 169211-44-3; 5-[3-(1,3-dihexylhexahydro-4,6-dioxo-2-thioxo-5-pyrimidinyl)-2-propen-1-ylidene]-1,3-dihexyldihydro-2-thioxo-4,6(1H,5H)-pyrimidinedione), in dry DMSO. The preparation of DiSBAC6(3) is analogous to that of DiSBAC4(3) as described in Voltage Sensing by Fluorescence Resonance Energy Transfer in Single Cells, Gonzalez, J. E. and Tsien, R. Y. (1995) Biophys. J. 69, 1272-1280.
5 mM CC2-DMPE, a commercially available membrane-bound coumarin phospholipid FRET donor (ThermoFisher Scientific catalog number K1017, CAS number 393782-57-5; tetradecanoic acid, 1,1′-[(1R)-1-[8-(6-chloro-7-hydroxy-2-oxo-2H-1-benzopyran-3-yl)-3-hydroxy-3-oxido-8-oxo-2,4-dioxa-7-aza-3-phosphaoct-1-yl]-1,2-ethanediyl]ester) was prepared in dry DMSO. See also, Improved indicators of cell membrane potential that use fluorescence resonance energy transfer, Gonzalez, J. E. and Tsien, R. Y. (1997) Chem. Biol. 4, 269-277.
Voltage Assay Background Suppression Compound (VABSC-1) is prepared in H2O (89-363 mM, range used to maintain solubility)
Human Serum (HS, Millipore #S1P1-01KL, or Sigma SLBR5469V and SLBR5470V as a 50%/50% mixture, for 25% assay final concentration)
Bath 1 Buffer: • Sodium Chloride 160 mM (9.35 g/L), Potassium Chloride, 4.5 mM (0.335 g/L), Glucose 10 mM (1.8 g/L), Magnesium Chloride (Anhydrous) 1 mM (0.095 g/L), Calcium Chloride 2 mM (0.222 g/L), HEPES 10 mM (2.38 g/L) in water. […]

Chain of human NaV 1.8 (Q9Y5Y9 126-1722 limits assumed): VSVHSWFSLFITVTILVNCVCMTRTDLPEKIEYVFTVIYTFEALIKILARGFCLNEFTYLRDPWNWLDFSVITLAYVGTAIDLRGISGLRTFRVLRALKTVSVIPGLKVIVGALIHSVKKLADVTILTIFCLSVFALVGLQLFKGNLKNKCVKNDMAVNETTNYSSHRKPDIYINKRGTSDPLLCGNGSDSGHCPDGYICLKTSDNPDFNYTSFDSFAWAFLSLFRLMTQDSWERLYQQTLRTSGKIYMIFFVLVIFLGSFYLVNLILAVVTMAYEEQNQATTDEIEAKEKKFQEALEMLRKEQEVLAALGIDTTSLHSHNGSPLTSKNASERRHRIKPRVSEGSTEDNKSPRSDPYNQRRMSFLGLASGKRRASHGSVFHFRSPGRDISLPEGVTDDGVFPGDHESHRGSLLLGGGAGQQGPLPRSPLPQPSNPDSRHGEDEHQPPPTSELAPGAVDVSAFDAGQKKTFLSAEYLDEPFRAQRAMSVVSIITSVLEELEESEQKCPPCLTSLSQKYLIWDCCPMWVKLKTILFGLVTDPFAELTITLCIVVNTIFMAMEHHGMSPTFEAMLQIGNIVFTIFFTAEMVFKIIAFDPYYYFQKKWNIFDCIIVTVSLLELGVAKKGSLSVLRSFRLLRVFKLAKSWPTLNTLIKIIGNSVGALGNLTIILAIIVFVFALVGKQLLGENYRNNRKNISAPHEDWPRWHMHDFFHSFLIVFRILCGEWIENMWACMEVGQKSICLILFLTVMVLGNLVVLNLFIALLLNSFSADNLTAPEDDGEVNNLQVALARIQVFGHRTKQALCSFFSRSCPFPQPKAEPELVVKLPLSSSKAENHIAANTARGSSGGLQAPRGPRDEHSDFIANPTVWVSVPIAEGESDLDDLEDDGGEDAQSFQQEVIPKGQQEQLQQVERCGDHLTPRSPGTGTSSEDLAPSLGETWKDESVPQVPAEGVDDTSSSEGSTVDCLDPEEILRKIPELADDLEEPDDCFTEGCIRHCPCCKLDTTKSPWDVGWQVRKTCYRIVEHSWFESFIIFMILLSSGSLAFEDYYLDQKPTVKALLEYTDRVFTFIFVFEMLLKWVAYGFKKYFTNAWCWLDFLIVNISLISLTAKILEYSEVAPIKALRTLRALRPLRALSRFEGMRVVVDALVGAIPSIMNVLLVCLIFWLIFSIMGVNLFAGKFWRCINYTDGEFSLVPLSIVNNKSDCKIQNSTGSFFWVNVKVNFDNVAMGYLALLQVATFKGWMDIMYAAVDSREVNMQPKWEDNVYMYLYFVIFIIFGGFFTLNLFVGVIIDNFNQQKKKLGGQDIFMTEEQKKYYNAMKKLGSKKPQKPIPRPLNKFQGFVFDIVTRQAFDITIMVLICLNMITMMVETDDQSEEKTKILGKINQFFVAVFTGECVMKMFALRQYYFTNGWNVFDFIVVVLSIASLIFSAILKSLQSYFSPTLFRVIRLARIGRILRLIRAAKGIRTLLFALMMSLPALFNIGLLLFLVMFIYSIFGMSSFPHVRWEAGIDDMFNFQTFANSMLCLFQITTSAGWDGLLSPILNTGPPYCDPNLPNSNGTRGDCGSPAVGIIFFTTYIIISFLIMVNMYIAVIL

Compound	IC50 [nM]
Cc1c([C@@H]2[C@@H](C(=O)Nc3ccc(CO)nc3)O[C@](C)(C(F)(F)F)[C@@H]2C)ccc(F)c1F (single isomer, unassigned) [Compound 78]	≥ 1000
C[C@H]1[C@@H](c2ccc(F)c(F)c2OCC(F)F)[C@H](C(=O)Nc2ccc([C@@H](O)CO)nc2)O[C@@]1(C)C(F)(F)F [Compound 38, (2R,3S,4S,5R)-3-(2-(2,2-difluoroethoxy)-3,4-difluorophenyl)-N-(6-((R)-1,2-dihydroxyethyl)pyridin-3-yl)-4,5-dimethyl-5-(trifluoromethyl)tetrahydrofuran-2-carboxamide]	< 10
CCOc1c([C@@H]2[C@@H](C(=O)Nc3ccc([C@H](O)CO)nc3)O[C@](C)(C(F)(F)F)[C@@H]2C)ccc(F)c1C (single isomer, unassigned) [Compound 43, rel-(2S,3R,4R,5S)-N-(6-((S*)-1,2-dihydroxyethyl)pyridin-3-yl)-3-(2-ethoxy-4-fluoro-3-methylphenyl)-4,5-dimethyl-5-(trifluoromethyl)tetrahydrofuran-2-carboxamide]	≥ 1000
COc1c([C@H]2[C@H](C(=O)Nc3ccc(CO)nc3)O[C@@](C)(C(F)(F)F)[C@H]2C)ccc(OC(F)F)c1F [Compound 18, (2R,3S,4S,5R)-3-(4-(difluoromethoxy)-3-fluoro-2-methoxyphenyl)-N-(6-(hydroxymethyl)pyridin-3-yl)-4,5-dimethyl-5-(trifluoromethyl)tetrahydrofuran-2-carboxamide]	10 to 100
COc1c([C@H]2[C@H](C(=O)Nc3cnc(C(O)CO)nc3)O[C@@](C)(C(F)(F)F)[C@H]2C)cccc1C(F)(F)F (single isomer, unassigned) [Compound 73]	10 to 100
COc1c(C2C(C(=O)Nc3cnc(CO)nc3)OC(C)(C(F)(F)F)C2C)ccc(F)c1C(F)F (single isomer, unassigned) [Compound 55]	100 to 1000
COc1c([C@H]2[C@H](C(=O)Nc3ccc([C@H](O)CO)[n+]([O-])c3)O[C@@](C)(C(F)(F)F)[C@H]2C)ccc(F)c1C (relative stereo) [Compound 59, rel-2-((S*)-1,2-dihydroxyethyl)-5-((2R,3S,4S,5R)-3-(4-fluoro-2-methoxy-3-methylphenyl)-4,5-dimethyl-5-(trifluoromethyl)tetrahydrofuran-2-carboxamido)pyridine 1-oxide]	10 to 100

Other lines, results leading:

IC50 [nM]	Compound
< 10	COc1c([C@H]2[C@H](C(=O)Nc3ccc([C@@H](O)CO)nc3)O[C@@](C)(C(F)(F)F)[C@H]2C)ccc(F)c1F (single isomer, unassigned) [Compound 1]
< 10	COc1c([C@H]2[C@H](C(=O)Nc3ccc([C@@H](O)CO)nc3)O[C@@](C)(C(F)(F)F)[C@H]2C)ccc(F)c1C (single isomer, unassigned) [Compound 47, rel-(2R,3S,4S,5R)-N-(6-((R*)-1,2-dihydroxyethyl)pyridin-3-yl)-3-(4-fluoro-2-methoxy-3-methylphenyl)-4,5-dimethyl-5-(trifluoromethyl)tetrahydrofuran-2-carboxamide]
10 to 100	Cc1c([C@H]2[C@H](C(=O)Nc3ccc([C@@H](O)CO)nc3)O[C@@](C)(C(F)(F)F)[C@H]2C)ccc(F)c1F (single isomer, unassigned) [Compound 66, rel-(2R,3S,4S,5R)-3-(3,4-difluoro-2-methylphenyl)-N-(6-((R*)-1,2-dihydroxyethyl)pyridin-3-yl)-4,5-dimethyl-5-(trifluoromethyl)tetrahydrofuran-2-carboxamide]
≥ 1000	Cc1c([C@@H]2[C@@H](C)[C@@](C)(C(F)(F)F)O[C@H]2C(=O)Nc2ccc(CO)nc2)ccc(F)c1F (single isomer, unassigned) [Compound 77]
≥ 1000	Cc1c([C@@H]2[C@@H](C(=O)Nc3ccc([C@@H](O)CO)nc3)O[C@@](C)(C(F)(F)F)[C@H]2C)ccc(F)c1F (single isomer, unassigned) [Compound 65, rel-(2S,3R,4S,5R)-3-(3,4-difluoro-2-methylphenyl)-N-(6-((R*)-1,2-dihydroxyethyl)pyridin-3-yl)-4,5-dimethyl-5-(trifluoromethyl)tetrahydrofuran-2-carboxamide]
